Measured values taken from patent US10975056B2 (GlaxoSmithKline Intellectual Property Development Limited, priority 2016, dated 2021).
Where “and” joins values, the source holds several entries; their conditions need not be identical. Identical values can stand only once. Like-named read-outs stand apart in the source and are kept apart here.

What was measured:
[1] = system: erythroid progenitor cells (EPCs); assay: Fetal hemoglobin (HbF) ELISA in day 7 erythroid progenitor cells; assay type: cell-based, human; conditions: Homo sapiens, Erythroid progenitor cell, HbF ELISA, day 7 EPCs, 5 days; read-out: EPC ELISA (pEC50 category) (converted);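 also: for fetal hemoglobin induction normalized to vehicle-treated cells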
How it was run: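 Read-out was OD450 from an HRP/TMB sandwich ELISA on lysates, normalized to DMSO-only control wells. Thawed day 7 EPCs from human marrow CD34+ cells had been treated for 5 days at 37° C with Compound A, 22 concentrations […].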

DNMT1 = DNMT1 (Homo sapiens, UniProt P26358); assay: DNMT1 biochemical activity, breaklight assay and/or SPA assay
Chain of DNMT1 (P26358 whole entry, looked up): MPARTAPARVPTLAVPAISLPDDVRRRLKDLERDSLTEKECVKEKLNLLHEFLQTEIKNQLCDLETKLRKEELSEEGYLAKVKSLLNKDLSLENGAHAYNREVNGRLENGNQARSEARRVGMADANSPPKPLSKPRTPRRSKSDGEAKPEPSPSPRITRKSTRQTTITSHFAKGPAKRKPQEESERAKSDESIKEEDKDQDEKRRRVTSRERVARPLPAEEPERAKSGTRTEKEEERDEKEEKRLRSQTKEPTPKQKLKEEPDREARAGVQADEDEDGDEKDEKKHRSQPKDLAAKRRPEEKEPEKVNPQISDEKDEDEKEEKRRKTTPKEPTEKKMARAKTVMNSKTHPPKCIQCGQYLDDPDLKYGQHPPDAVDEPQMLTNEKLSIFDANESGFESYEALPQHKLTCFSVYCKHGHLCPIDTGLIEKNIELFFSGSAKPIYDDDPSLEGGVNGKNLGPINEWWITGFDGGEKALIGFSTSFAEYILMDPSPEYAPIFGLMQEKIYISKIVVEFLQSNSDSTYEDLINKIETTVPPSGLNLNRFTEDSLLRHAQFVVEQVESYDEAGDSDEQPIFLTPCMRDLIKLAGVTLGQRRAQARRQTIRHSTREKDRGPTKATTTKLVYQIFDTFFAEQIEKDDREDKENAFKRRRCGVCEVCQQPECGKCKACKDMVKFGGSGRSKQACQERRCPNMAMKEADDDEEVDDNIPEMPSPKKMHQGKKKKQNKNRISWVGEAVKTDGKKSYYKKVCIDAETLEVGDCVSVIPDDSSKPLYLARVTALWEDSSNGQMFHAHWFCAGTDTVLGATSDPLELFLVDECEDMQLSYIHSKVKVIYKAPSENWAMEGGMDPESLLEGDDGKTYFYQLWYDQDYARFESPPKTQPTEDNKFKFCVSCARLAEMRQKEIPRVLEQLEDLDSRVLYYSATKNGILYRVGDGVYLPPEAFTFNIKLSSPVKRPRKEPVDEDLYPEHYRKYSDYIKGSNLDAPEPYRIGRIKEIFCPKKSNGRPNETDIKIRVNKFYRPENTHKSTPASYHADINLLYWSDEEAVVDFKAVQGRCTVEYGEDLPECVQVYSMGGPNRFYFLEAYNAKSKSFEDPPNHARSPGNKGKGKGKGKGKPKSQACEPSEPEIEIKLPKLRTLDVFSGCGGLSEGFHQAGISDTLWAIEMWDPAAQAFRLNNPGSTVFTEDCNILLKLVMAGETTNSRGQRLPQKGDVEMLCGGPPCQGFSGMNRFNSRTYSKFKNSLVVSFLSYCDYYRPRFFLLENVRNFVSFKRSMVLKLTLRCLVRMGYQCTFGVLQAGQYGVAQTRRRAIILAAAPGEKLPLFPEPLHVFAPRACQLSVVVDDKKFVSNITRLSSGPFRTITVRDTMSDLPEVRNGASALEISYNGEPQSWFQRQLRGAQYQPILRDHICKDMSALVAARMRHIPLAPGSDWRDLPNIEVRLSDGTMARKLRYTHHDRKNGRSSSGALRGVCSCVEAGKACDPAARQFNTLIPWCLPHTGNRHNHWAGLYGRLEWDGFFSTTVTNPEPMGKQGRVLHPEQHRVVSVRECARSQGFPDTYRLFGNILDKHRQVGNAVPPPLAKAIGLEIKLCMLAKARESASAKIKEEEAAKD

[2] = binned activity in either the breaklight or the SPA assay
[3] = binned activity in either the breaklight or the SPA assay, read-out: DNMT1 BioChemical (pIC50 category) (converted)

EC50 [1] [nM]	DNMT1 BioChemical (pIC50 category) (DNMT1; [2])	IC50 (DNMT1; [3]) [nM]	IC50 (DNMT1; breaklight assay and/or SPA assay, repeated experimental runs, read-out: average pIC50 against DNMT1 (converted))	Compound
< 316	D (Category D: ≥6.5)	–	–	CCc1c(C#N)c(SC(C(N)=O)c2ccccc2)nc(N2CCC(N3[C@H](C)CC[C@@H]3C)CC2)c1C#N (stereo partly drawn) [Example 452, 2-((3,5-dicyano-6-(4-((2R,5S)-2,5-dimethylpyrrolidin-1-yl)piperidin-1-yl)-4-ethylpyridin-2-yl)thio)-2-phenylacetamide]
1000 to 31600	D (Category D: ≥6.5)	–	–	CCc1c(C#N)c(SC(C(N)=O)c2ccccc2)nc(N2CCC(NC(=O)[C@@H](N)CO)CC2)c1C#N (some centres unmarked) [Example 399]
316 to 1000	–	316 to 1000	–	CCc1c(C#N)c(SC(C(N)=O)c2ccccc2)nc(N(C)CCO)c1C#N (centres unmarked) [Example 147, 2-(3,5-Dicyano-4-ethyl-6-((2-hydroxyethyl)(methyl)amino)pyridin-2-ylthio)-2-phenylacetamide]
> 31600	–	1000 to 31600	–	CCc1c(C#N)c(SC(C(N)=O)c2cc(F)ncc2F)nc(N2CCCN(C)CC2)c1C#N (centres unmarked) [Example 249, 2-((3,5-Dicyano-4-ethyl-6-(4-methyl-1,4-diazepan-1-yl)pyridin-2-yl)thio)-2-(2,5-difluoropyridin-4-yl)acetamide]
< 316	D (Category D: ≥6.5)	–	–	CCc1c(C#N)c(SC(C(N)=O)c2ccccc2)nc(N2CCNC(C)CC2)c1C#N (centres unmarked) [Example 67, 2-{[3,5-dicyano-4-ethyl-6-(5-methyl-1,4-diazepan-1-yl)pyridin-2-yl]sulfanyl}-2-phenylacetamide]
1000 to 31600	D (Category D: ≥6.5)	–	–	CCc1c(C#N)c(SC(C(N)=O)c2ccc(C)cn2)nc(N(C)C)c1C#N (centres unmarked) [Example 238, 2-((3,5-Dicyano-6-(dimethylamino)-4-ethylpyridin-2-yl)thio)-2-(5-methylpyridin-2-yl)acetamide]
> 31600	D (Category D: ≥6.5)	–	–	CCc1c(C#N)c(SC(C(N)=O)c2ccc(F)cn2)nc(N(C)C)c1C#N (centres unmarked) [Example 199]
316 to 1000	D (Category D: ≥6.5)	–	–	CCc1c(C#N)c(SC(C(N)=O)c2ccccc2)nc(N(C)CCN(C)C)c1C#N (centres unmarked) [Example 493, 2-((3,5-dicyano-6-((2-(dimethylamino)ethyl)(methyl)amino)-4-ethylpyridin-2-yl)thio)-2-phenylacetamide]
< 316	D (Category D: ≥6.5)	–	–	CCc1c(C#N)c(SC(C(N)=O)c2ccccc2)nc(N(C)CCN2CC[C@H](O)C2)c1C#N (stereo partly drawn) [Example 486, 2-(3,5-dicyano-4-ethyl-6-((2-((S)-3-hydroxypyrrolidin-1-yl)ethyl)(methyl)amino)pyridin-2-ylthio)-2-phenylacetamide]
< 316	–	< 316	–	CCc1c(C#N)c(SC(C(N)=O)c2ccccc2)nc(N2CCC[C@@H](CN)C2)c1C#N (stereo partly drawn) [Example 576, 2-((6-((S)-3-(aminomethyl)piperidin-1-yl)-3,5-dicyano-4-ethylpyridin-2-yl)thio)-2-phenylacetamide]
1000 to 31600	–	316 to 1000	–	CCc1c(C#N)c(SCc2ccc(CC(=O)NCCO)cc2)nc(N(C)C)c1C#N [Example 291, 2-(4-(((3,5-Dicyano-6-(dimethylamino)-4-ethylpyridin-2-yl)thio)methyl)phenyl)-N-(2-hydroxyethyl)acetamide]
1000 to 31600	–	316 to 1000	–	CCc1c(C#N)c(SCc2ccc3[nH]ccc3c2)nc(N2CCC(N3CCCC3)CC2)c1C#N [Example 344, 2-(((1H-Indol-5-yl)methyl)thio)-4-ethyl-6-(4-(pyrrolidin-1-yl)piperidin-1-yl)pyridine-3,5-dicarbonitrile]
1000 to 31600	–	316 to 1000	316 to 1000 nM and 398 nM	CCc1c(C#N)c(SC(C(N)=O)c2ccc(OC)cn2)nc(N(C)C)c1C#N (centres unmarked) [Example 237, 2-((3,5-Dicyano-6-(dimethylamino)-4-ethylpyridin-2-yl)thio)-2-(5-methoxypyridin-2-yl)acetamide]
> 31600	–	1000 to 31600	–	CCc1c(C#N)c(SC(C(N)=O)c2ccccc2)nc(N2CCC(OP(=O)(O)O)CC2)c1C#N (centres unmarked) [Example 155, 1-(6-((2-Amino-2-oxo-1-phenylethyl)thio)-3,5-dicyano-4-ethylpyridin-2-yl)piperidin-4-yl dihydrogen phosphate]
< 316	D (Category D: ≥6.5)	–	–	CCc1c(C#N)c(SC(C(N)=O)c2ccccc2)nc(N(C)CCNC)c1C#N (centres unmarked) [Example 470, 2-((3,5-dicyano-4-ethyl-6-(methyl(2-(methylamino)ethyl)amino)pyridin-2-yl)thio)-2-phenylacetamide]
< 316	D (Category D: ≥6.5)	–	–	CCc1c(C#N)c(SC(C(N)=O)c2ccccc2)nc(N2CCC(NCC(C)(C)O)CC2)c1C#N (centres unmarked) [Example 447, 2-((3,5-dicyano-4-ethyl-6-(4-((2-hydroxy-2-methylpropyl)amino)piperidin-1-yl)pyridin-2-yl)thio)-2-phenylacetamide]
< 316	D (Category D: ≥6.5)	–	–	CCc1c(C#N)c(SC(C(N)=O)c2ccccc2)nc(N(C)CC(=O)N2CCC2)c1C#N (centres unmarked) [Example 631, 2-((6-((2-(azetidin-1-yl)-2-oxoethyl)(methyl)amino)-3,5-dicyano-4-ethylpyridin-2-yl)thio)-2-phenylacetamide]
316 to 1000	–	1000 to 31600	–	CCc1c(C#N)c(SC(C(N)=O)c2ccc(F)cc2)nc(N2CCN(C(C)(C)CO)CC2)c1C#N (centres unmarked) [Example 222, 2-((3,5-Dicyano-4-ethyl-6-(4-(1-hydroxy-2-methylpropan-2-yl)piperazin-1-yl)pyridin-2-yl)thio)-2-(4-fluorophenyl)acetamide]
> 31600	–	316 to 1000	–	CCc1c(C#N)c(SCc2ccc(C#N)cc2)nc(N2CCCN(C)CC2)c1C#N [Example 93, 2-((4-Cyanobenzyl)thio)-4-ethyl-6-(4-methyl-1,4-diazepan-1-yl)pyridine-3,5-dicarbonitrile]
316 to 1000	D (Category D: ≥6.5)	–	–	CN(CC(=O)N1CC(O)C1)c1nc(SC(C(N)=O)c2ccccc2)c(C#N)c(C2CC2)c1C#N (centres unmarked) [Example 392, 2-((3,5-Dicyano-4-cyclopropyl-6-((2-(3-hydroxyazetidin-1-yl)-2-oxoethyl) (methyl)amino)pyridin-2-yl)thio)-2-phenylacetamide]
1000 to 31600	D (Category D: ≥6.5)	–	–	CCc1c(C#N)c(SC(C(N)=O)c2ccccc2)nc(N(C)CC(=O)NC(CO)CO)c1C#N (centres unmarked) [Example 658, 2-((6-((2-amino-2-oxo-1-phenylethyl)thio)-3,5-dicyano-4-ethylpyridin-2-yl)(methyl)amino)-N-(1,3-dihydroxypropan-2-yl)acetamide]
< 316	D (Category D: ≥6.5)	–	–	CCc1c(C#N)c(SC(C(N)=O)c2ccccc2)nc(N2CC[C@@H](N)C2)c1C#N (stereo partly drawn) [Example 524, 2-((6-((R)-3-aminopyrrolidin-1-yl)-3,5-dicyano-4-ethylpyridin-2-yl)thio)-2-phenylacetamide]

Compound	EC50 [1] [nM]	DNMT1 BioChemical (pIC50 category) (DNMT1; [2])	IC50 (DNMT1; [3]) [nM]	IC50 (DNMT1; breaklight assay and/or SPA assay, repeated experimental runs, read-out: average pIC50 against DNMT1 (converted))
CCc1c(C#N)c(SC(C(N)=O)c2ccccc2)nc(N2CCO[C@H](CN)C2)c1C#N (stereo partly drawn) [Example 564, 2-((6-((R)-2-(aminomethyl)morpholino)-3,5-dicyano-4-ethylpyridin-2-yl)thio)-2-phenylacetamide]	< 316	D (Category D: ≥6.5)	–	–
